Measured values taken from US20240016941A1, “COMBINATION THERAPY” (priority 2020, published 2024).

How the values were obtained:
Assay type in all cases: biochemical
[1] = molecular target: T1, LasB elastase activity of dialysed supernatant from P. aeruginosa PAO1 (Pseudomonas aeruginosa, UniProt P14756); assay: Elastin Congo-Red assay to determine % inhibition (dialysed PAO1 supernatant); conditions: read-out: Elastin hydrolysis % inhibition @ 25 μM inhibitor concentration
T1 construct: Culture supernatants are recovered by centrifugation and filtrated through a 0.22 μM filter; endogenous in cells; host or cells: P. aeruginosa strain PAO1, culture supernatant, filtered and dialysed
T1 sequence (P14756 198-498): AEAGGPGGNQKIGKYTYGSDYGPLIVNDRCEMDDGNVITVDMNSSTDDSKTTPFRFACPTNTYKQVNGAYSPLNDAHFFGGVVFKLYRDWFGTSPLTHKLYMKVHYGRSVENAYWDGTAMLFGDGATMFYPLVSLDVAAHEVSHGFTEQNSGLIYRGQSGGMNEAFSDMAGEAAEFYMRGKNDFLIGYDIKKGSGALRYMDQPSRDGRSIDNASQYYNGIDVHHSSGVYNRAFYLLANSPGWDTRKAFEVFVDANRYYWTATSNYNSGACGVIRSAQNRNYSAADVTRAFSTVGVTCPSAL
Experimental: (§1) Experiments were therefore conducted (1) to measure the potency of inhibition of compounds of the invention against purified Pseudomonas aeruginosa LasB enzyme and also experiments were conducted (2) to measure the ability of compounds of the invention to inhibit LasB-catalysed elastin degradation. The first assay uses a commercial fluorescent synthetic peptide and purified LasB enzyme. The LasB hydrolysis kinetics are measured allowing the determination of the IC50 and Ki of the inhibitors; the second is a more physiological assay using dialysed Pseudomonas aeruginosa supernatant as source of enzyme, plus its natural substrate Elastin. It is an “end point assay” that determines the percentage of LasB inhibition by each compound for one particular time point and inhibitor concentration. Technical details are described below:
The Elastin assay uses as source of enzyme dialysed supernatant from P. aeruginosa PAO1 and the Elastin Congo-Red as substrate. The natural LasB substrate, elastin, is complexed with the congo-red dye (Elastin Congo-Red, ECR). The elastolysis activity from the culture supernatant will degrade elastin and release the congo-red dye into the supernatant. This red dye release can be measured with a spectrophotometer.
Method: To determine LasB elastase activity and assess compound inhibition, an overnight culture of P. aeruginosa strain PAO1 is diluted in LB medium. After reaching an OD600nm of 0.6, this culture is diluted and incubated for additional 18-24 hours in a shaking incubator. Culture supernatants are recovered by centrifugation and filtrated through a […] filter. These supernatants are dialysed (filtration molecules <20 kDa) into a 50 mM Tris-HCl pH 7.4, 2.5 mM CaCl2 solution at 4° C. under agitation for 24 hours. Supernatant dialysed is then mixed volume/volume with the ECR suspension (20 mg/mL of ECR in 100 mM Tris-HCl pH 7.4 buffer supplemented with 1 mM CaCl2)) supplemented with Triton X100 (final concentration of 0.01%) in presence of DMSO (positive control) and/or different concentrations of compound (routinely 50 to 1.56 μM). As a negative control, the dialysed supernatant is replaced by Tris-HCl solution (50 mM Tris-HCl pH 7.4, 2.5 mM CaCl2). The mixed reaction is then incubated overnight in a 37° C. shaking incubator. The reaction supernatant is recovered by centrifugation and the release of congo-red is measured by its absorbance at 495 nm (OD495nm).
Percentage inhibition is determined using the following equation:
((OD495 nm value of positive control−OD495nm value of negative control)−(OD495nm value of treated supernatant−OD495nm value of negative control))/(OD495nm value of positive control−OD495nm value of negative control)×100.

[2] = molecular target: T2, purified LasB protein from P. aeruginosa (Pseudomonas aeruginosa, UniProt P14756); assay: Fluorometric assay to determine Ki (purified LasB, Abz-Ala-Gly-Leu-Ala-p-Nitro-Benzyl-Amide substrate)
T2 construct: purchased Merck or Charles River Laboratories
T2 sequence (P14756 198-498): as above
Experimental: as §1
This assay uses commercially available substrate (Abz-Ala-Gly-Leu-Ala-p-Nitro-Benzyl-Amide (Ex: 340 nm, Em: 415 nm) from Peptide International) and purified LasB protein from P. aeruginosa (provided by Merck or Charles River Laboratories). It is performed to determine LasB elastase activity and assess compound inhibition in 96-well plate format. All compounds of Formula (I) were assessed using the method described below.
Method: 10 to 140 ng/ml purified LasB is incubated with 250 μM Abz-Ala-Gly-Leu-Ala-p-Nitro-Benzyl-Amide in 50 mM Tris-HCl pH 7.4, 2.5 mM CaCl2), 0.01% of Triton X100 at 37° C. LasB activity (corresponding to fluorescence emission induced by substrate hydrolysis) is measured over 30 min at 37° C. with a fluorescence plate reader such as the Perkin Elmer Envision or similar. Different range of inhibitor concentrations are routinely assessed depending of inhibitor potency from 0.0016 to 200 μM (2-fold dilutions series) in order to determine IC50.
The equation used to calculate the Ki from IC50 is: Ki=IC50/(1+([S]/Km)) where [S]=250 μM and Km=214 μM.

purified LasB = purified LasB (Pseudomonas aeruginosa, UniProt P14756); assay: Inhibition of LasB-mediated hydrolysis of pro-IL-1β to IL-1β (FRET peptide)
purified LasB, sequence (P14756 198-498): as above
Experimental: Hydrolysis of this FRET peptide was continuously monitored using a Victor multimode plate reader (Perkin Elmer) with excitation 355 nm and emission at 450 nm in the presence of varying concentrations of compounds of the invention. Inhibitory constants (Ki) were determined for certain compounds of the invention (at least 2 independent replicates) using a competitive inhibitor model.

With `COc1cc2sc(CNC(=O)C3(CC(=O)[O-])Cc4cc(F)c(F)cc4C3)nc2cc1OCCC[N+]1(C)CCCC1` [Example 19, 2-[5,6-difluoro-2-[[6-methoxy-5-[3-(1-methylpyrrolidin-1-ium-1-yl)propoxy]-1,3-benzothiazol-2-yl]methylcarbamoyl]indan-2-yl]acetate] the inhibition at 25 µM [1] was over 80%, the Ki [2] was under 50 nM and the Ki (purified LasB) was 270 nM.

`COc1cc2sc(CNC(=O)C3(CC(=O)O)Cc4cc(F)c(F)cc4C3)nc2cc1OCC1CCN(C)CC1` [Example 11, 2-[5,6-difluoro-2-[[6-methoxy-5-[(1-methyl-4-piperidyl)methoxy]-1,3-benzothiazol-2-yl]methylcarbamoyl]indan-2-yl]acetic acid] showed an inhibition at 25 µM [1] of over 80%, a Ki [2] of under 50 nM and a Ki (purified LasB) of 220 nM.

For `COc1cc2sc(CNC(=O)C3(CC(=O)[O-])Cc4ccccc4C3)nc2cc1OCCC[N+](C)(C)CCO` [Example 20, 2-[2-[[5-[3-[2-hydroxyethyl(dimethyl)ammonio]propoxy]-6-methoxy-1,3-benzothiazol-2-yl]methylcarbamoyl]indan-2-yl]acetate], the inhibition at 25 µM [1] was 60 to 80%, the Ki [2] was under 50 nM and the Ki (purified LasB) was 340 nM.

For `COc1cc2sc(CNC(=O)C3(CC(=O)[O-])Cc4cc(F)c(F)cc4C3)nc2cc1OCCOCC[N+](C)(C)C` [Example 55, 2-[5,6-difluoro-2-[[6-methoxy-5-[2-[2-(trimethylammonio)ethoxy]ethoxy]-1,3-benzothiazol-2-yl]methylcarbamoyl]indan-2-yl]acetate], the Ki [2] was under 50 nM and the Ki (purified LasB) was 420 nM.

Compound `COc1cc2sc(CNC(=O)C3(CC(=O)[O-])Cc4cc(F)c(F)cc4C3)nc2cc1OCC1CC[N+](C)(C)CC1` [Example 44, 2-[2-[[5-[(1,1-dimethylpiperidin-1-ium-4-yl)methoxy]-6-methoxy-1,3-benzothiazol-2-yl]methylcarbamoyl]-5,6-difluoro-indan-2-yl]acetate] has an inhibition at 25 µM [1] of over 80%, a Ki [2] of under 50 nM and a Ki (purified LasB) of 300 nM.

Compound `COc1cc2sc(CNC(=O)C3(CC(=O)[O-])Cc4ccccc4C3)nc2cc1C(=O)N1CC([N+](C)(C)C)C1` [Example 42, 2-[2-[[6-methoxy-5-[3-(trimethylammonio)azetidine-1-carbonyl]-1,3-benzothiazol-2-yl]methylcarbamoyl]indan-2-yl]acetate] has an inhibition at 25 µM [1] of 60 to 80% and a Ki [2] of 200 to 10000 nM.

`COc1cc2sc(CNC(=O)C3(CC(=O)O)Cc4ccccc4C3)nc2cc1C(=O)N1CC(N(C)C)C1` [Example 36, 2-[2-[[5-[3-(dimethylamino)azetidine-1-carbonyl]-6-methoxy-1,3-benzothiazol-2-yl]methylcarbamoyl]indan-2-yl]acetic acid] showed an inhibition at 25 µM [1] of over 80% and a Ki [2] of under 50 nM.

Compound `COc1cc2sc(CNC(=O)C3(CC(=O)O)Cc4ccccc4C3)nc2cc1C(=O)N1CCOC(CN(C)C)C1` (stereo not shown) [Example 40, 2-[2-[[5-[2-[(dimethylamino)methyl]morpholine-4-carbonyl]-6-methoxy-1,3-benzothiazol-2-yl]methylcarbamoyl]indan-2-yl]acetic acid] has an inhibition at 25 µM [1] of 60 to 80% and a Ki [2] of 50 to 200 nM.

`CN1CCN(C(=O)COc2ccc3sc(CNC(=O)C4(CC(=O)O)Cc5ccccc5C4)nc3c2)CC1` [Example 24, 2-[2-[[5-[2-(4-methylpiperazin-1-yl)-2-oxo-ethoxy]-1,3-benzothiazol-2-yl]methylcarbamoyl]indan-2-yl]acetic acid] gave an inhibition at 25 µM [1] of 60 to 80% and a Ki [2] of 200 to 10000 nM.

For `COc1cc2sc(CNC(=O)C3(CC(=O)O)Cc4ccccc4C3)nc2cc1S(=O)(=O)N1CCC(N(C)C)CC1` [Example 46, 2-[2-[[5-[[4-(dimethylamino)-1-piperidyl]sulfonyl]-6-methoxy-1,3-benzothiazol-2-yl]methylcarbamoyl]indan-2-yl]acetic acid], the inhibition at 25 µM [1] was 60 to 80% and the Ki [2] was 50 to 200 nM.

`COc1cc2sc(CNC(=O)C3(CC(=O)O)Cc4ccccc4C3)nc2cc1C(=O)N1CCN(C)CC1` [Example 33, 2-[2-[[6-methoxy-5-(4-methylpiperazine-1-carbonyl)-1,3-benzothiazol-2-yl]methylcarbamoyl]indan-2-yl]acetic acid] showed an inhibition at 25 µM [1] of 60 to 80% and a Ki [2] of under 50 nM.

Work on `COc1cc2sc(CNC(=O)C3(CC(=O)O)Cc4cc(F)c(F)cc4C3)nc2cc1OCCN1CCOCC1` [Example 10, 2-[5,6-difluoro-2-[[6-methoxy-5-(2-morpholinoethoxy)-1,3-benzothiazol-2-yl]methylcarbamoyl]indan-2-yl]acetic acid] yielded an inhibition at 25 µM [1] of over 80% and a Ki [2] of under 50 nM.

`N#Cc1ccc2sc(CNC(=O)C3(CC(=O)O)Cc4ccccc4C3)nc2c1` [Example 49, 2-[2-[(5-cyano-1,3-benzothiazol-2-yl)methylcarbamoyl]indan-2-yl]acetic acid] showed an inhibition at 25 µM [1] of 60 to 80% and a Ki [2] of 50 to 200 nM.

`COc1cc2sc(CNC(=O)C3(CC(=O)O)Cc4ccccc4C3)nc2cc1OCCN1CCOCC1` [Example 9, 2-[2-[[6-methoxy-5-(2-morpholinoethoxy)-1,3-benzothiazol-2-yl]methylcarbamoyl]indan-2-yl]acetic acid] gave an inhibition at 25 µM [1] of over 80%, a Ki [2] of under 50 nM and a Ki (purified LasB) of 160 nM.

`COc1cc2sc(CNC(=O)C3(CC(=O)[O-])Cc4cc(F)c(F)cc4C3)nc2cc1OCCC[N+](C)(C)CCO` [Example 21, 2-[5,6-difluoro-2-[[5-[3-[2-hydroxyethyl(dimethyl)ammonio]propoxy]-6-methoxy-1,3-benzothiazol-2-yl]methylcarbamoyl]indan-2-yl]acetate] gave an inhibition at 25 µM [1] of over 80% and a Ki [2] of under 50 nM.

For `NC(=O)c1cccc2sc(CNC(=O)C3(CC(=O)O)Cc4ccccc4C3)nc12` [Example 1, 2-[2-[(4-carbamoyl-1,3-benzothiazol-2-yl)methylcarbamoyl]indan-2-yl]acetic acid], the inhibition at 25 µM [1] was 10 to 60% and the Ki [2] was 200 to 10000 nM.

Compound `N#Cc1ccc2nc(CNC(=O)C3(CC(=O)O)Cc4ccccc4C3)sc2c1` [Example 48, 2-[2-[(6-cyano-1,3-benzothiazol-2-yl)methylcarbamoyl]indan-2-yl]acetic acid] has an inhibition at 25 µM [1] of 60 to 80% and a Ki [2] of 50 to 200 nM.

`COc1cc2sc(CNC(=O)C3(CC(=O)O)Cc4cc(F)c(F)cc4C3)nc2cc1C(=O)N1CC(N(C)C)C1` [Example 37, 2-[2-[[5-[3-(dimethylamino)azetidine-1-carbonyl]-6-methoxy-1,3-benzothiazol-2-yl]methylcarbamoyl]-5,6-difluoro-indan-2-yl]acetic acid] gave an inhibition at 25 µM [1] of over 80% and a Ki [2] of under 50 nM.

`COc1cc2sc(CNC(=O)C3(CC(=O)[O-])Cc4cc(F)c(F)cc4C3)nc2cc1OCC(=O)N1CC[N+](C)(C)CC1` [Example 14, 2-[2-[[5-[2-(4,4-dimethylpiperazin-4-ium-1-yl)-2-oxo-ethoxy]-6-methoxy-1,3-benzothiazol-2-yl]methylcarbamoyl]-5,6-difluoro-indan-2-yl]acetate] gave an inhibition at 25 µM [1] of 60 to 80% and a Ki [2] of 50 to 200 nM.
